Laboratory results taken from patent publication US20170095578A1, “CT SCANS USING GADOLINIUM-BASED CONTRAST AGENT” (UNIVERSITY OF MASSACHUSETTS MEDICAL SCHOOL, priority 2014, published 2017).

What was measured:
[1] = gadoxetate disodium-enhanced CT scan of a human patient; type: in vivo
Procedure: (§1) A patient was undergoing evaluation for living liver donation.
FIG. 7A is an enhanced CT scan image of their liver using gadoxetate disodium as a contract agent according to principles of the invention. […] In this particular patient the CT scan was obtained 99 minutes after the gadoxetate disodium-enhanced MRI shown in FIG. 7B, a relatively long interval to image gallbladder filling. A better contrast resolution is expected when using shorter interval. The highest concentration of contrast within the gallbladder, and therefore the best contrast resolution, is expected between 30 to 60 minutes from the time of intravenous injection of contrast.
The CT scan technique used included a slice thickness of 4.00 mm, and a field of view of 283.0 mm. The x-ray radiation was generated using 120 kV and a current of 182 mA, with a tube current of 182 mA and tube current-time product of 213 mAs.

[2] = gadoxetate disodium-enhanced MRI of the same patient; type: in vivo, human; settings: MRI 20 minutes following intravenous administration
Procedure: as §1
FIG. 7B is a gadoxetate disodium-enhanced MRI image of the same patient. […] The MRI of FIG. 7B was obtained 20 minutes following intravenous administration of gadoxetate disodium.

CCOc1ccc(CC(CN(CCN(CC(=O)[O-])CC(=O)[O-])CC(=O)[O-])N(CC(=O)[O-])CC(=O)[O-])cc1.[Gd+3].[Na+].[Na+] (stereo not drawn) [gadoxetate disodium, Gadoxetate disodium]
gallbladder opacification under CT imaging conditions ([1]; following intravenous injection): clearly demonstrates gallbladder opacification
visualization of excreted hepatobiliary contrast in the gallbladder on CT ([1]; patient, arterial phase CT at 120 kV, 182 mA, 99 minutes after the gadoxetate disodium-enhanced MRI): anti-dependant hyperdensity within the gallbladder fundus
visualization of excreted contrast in the gallbladder on MRI [2]: excreted contrast within the gallbladder lumen
